Assay results published in US12648939B2, “Compounds and methods for treating spasticity” (Lexicon Pharmaceuticals, Inc., priority 2022, dated 2026).

Key:
[1] = tested on: myelin oligodendrocyte glycoprotein (MOG)-induced murine model of experimental autoimmune encephalomyelitis (EAE); assay: Mechanical allodynia evaluation (Von Frey testing) in EAE model; format: in vivo, C57BL/6J mice; details: Day 9
Description: (§1) The effect of Compound 1 on spasticity was evaluated in a myelin oligodendrocyte glycoprotein (MOG)-induced murine model of experimental autoimmune encephalomyelitis (EAE), a central nervous system (CNS) autoimmune demyelinating disease that mimics many of the clinical and pathologic features of multiple sclerosis. Gilgun-Sherki Y., et al., Neurosciences Research 47:201-207, 2003.
(§2) Study Design and Results. This study used sixty female young adult (10-11 weeks at study initiation) C57BL/6J mice sourced from Envigo RMS (Israel), Ltd. The animals were divided into five experimental groups:
(§3) FIG. 1 provides a representation of the study. Following baseline measurements, the MOG murine model begins with a sensitization period induced by the single subcutaneous (SC) injection of MOG emulsified in Complete Freund's adjuvant (CFA) on Study Day 0, followed by intraperitoneal (IP) supplemental immunostimulation with pertussis toxin (PT) carried out once at the day of EAE induction (study day 0) and once again 48 hours later (on study day 2). […] Mechanical allodynia was tested using the Von Frey test at Baseline and on Day 9 at various timepoints. For evaluation of spasticity, transcranial motor-evoked potentials (tcMEPs) were tested at Baseline and on Days 9 and 21-22 (half of the animals on each day). All animals were administered treatment once daily, starting on Day 0 until Day 22. Animals in Group 1 received oral (PO) treatment with the vehicle. Animals in Group 2 were treated with Fingolimod (FTY720; positive control) at a dose level of 3 mg/kg. PO. Animals in Groups 3 and 4 were treated with the test item Compound 1 at a dose level of 10 mg/kg or 3 mg/kg, PO, respectively. Animals in Group 5 were treated with Tizanidine at a dose level of 1 mg/kg, IP.
Mechanical Allodynia Evaluation (Von Frey Testing): Animals were tested for mechanical allodynia using the Von Frey test at Baseline, and then on Day 9 at 0.5 hours ([…]), 1.5 hours, 3.5 hours (all groups) and 5.5 hours (Groups 1-4 only) post-dose.

[2] = tested on: rat model of spasticity induced by complete spinal cord transection; assay: Rate-dependent depression (RDD) of the H-reflex in SCI rats; format: in vivo; details: for mean relative amplitudes of the H-reflex (RDD), effect on spasticity / mean relative amplitudes of the H-reflex (RDD): SCI rats 5 weeks after injury; for duration of action (H-reflex RDD): recordings up to 6 hours
Description: (§4) The efficacy of Compound 1 was measured in a rat model of spasticity induced by complete spinal cord transection. To induce muscle spasticity, a model of complete spinal cord transection cord at the eighth thoracic (T8) vertebral level was used. Five weeks after the Spinal Cord Injury (SCI), the rats were orally (P.O.) treated with Compound 1 (3, 10, or 30 mg/kg), Baclofen (4.5 mg/kg). Tizanidine (3 mg/kg) or vehicles alone (0.9% NaCl, Compound 1 vehicle), and the degree of spasticity response was measured using the rate-dependent depression (RDD) of the Hoffmann's reflex (H-reflex) and spasms induction.
(§5) Materials and Methods. […] One hundred and fifty-one SCI rats were maintained up to the end of the 5th post-injury week. One hundred and forty rats were submitted to P.O. administration of the test compounds and EMG analysis.
(§6) The rat was firmly restrained to immobilize the head. In an upright position, the gavage needle was passed along the side of the mouth. Following the roof of the mouth, the needle was advanced into the esophagus and toward the stomach. After the needle is passed to the correct length, the compound was slowly injected. The rats were randomly assigned to one of the test groups:
(§7) Electroneuromyographical recordings were performed in the right hind limbs before and 1, 2, 3, 4, 5 and 6 hours after P.O. administration.
(§8) Electromyographical (EMG) signals were amplified (100×) and bandpass filtered (300 Hz to 5 kHz; A-M Systems Amplifier. Everett, Washington; model 1700) before sampling at 13.5 kHz (Digidata 1440A, Molecular Devices). The tibial nerve was stimulated by using square pulses with increasing stimulus intensities (0.2 mA increments starting from 0.2 mA, 0.2 Hz, 0.2 ms; A-M systems stimulator, Model 2100) to obtain recruitment curves.
RDD of the H-reflex: To induce sedation, intraperitoneal injection of ketamine (100 mg/kg; Imalgen®) was used to suppress voluntary movements and increase muscle tone. Rats thorax and hindlimbs were secured on a heating pad with adhesive tape. The following series of measurements were repeated throughout the experiment: • 1. Hmax and Mmax determination: the tibial nerve was stimulated for 0.2 ms at 0.2 Hz with increasing current intensities (1-6 mA in 0.1 mA increments) until Mmax was stabilized. • 2. RDD measurement: the intensity necessary to obtain a maximal H-reflex was used for trains of 13 stimulations at 0.2, 1, 2 and 5 Hz with 2 min intervals between each train of stimulations. A whole series of measurements lasted about 15 minutes. • 3. Determination of the level of RDD: at the different frequencies, responses to the first three stimulations necessary for the depression to occur were discarded, and all the responses were expressed as percentages relative to the mean response at 0.2 Hz in the same series of measurements.
(§9) Data analysis: H-reflex RDDs and areas under the curves (AUC) were determined as a measurement of spasticity and analyzed at each time point and for each frequency with Mann-Whitney test or with Kruskal Wallis one-way analysis of variance (ANOVA) test, followed by Dunn's multiple comparisons test. P<0.05 was considered significant. Significant differences were marked with asterisks (*) according to their respective P-values: values were expressed as the mean value±standard error of the mean (SEM) in all graphs. All statistical analyses were performed using GraphPad Prism 7 (San Diego, California, USA).
Modulation of the RDD of the H-reflex. The Hoffmann reflex was used to assess primary (type 1a) afferents-mediated motoneuronal excitability in rats suffering from spasticity. Electromyograms typically show two responses: an initial M wave (FIG. 6B) resulting from the direct activation of motor axons (FIG. 6A-1), and a delayed H wave (FIG. 6B) resulting from the monosynaptic activation of motoneurons by the afferents (FIG. 6A-2). […]

[3] = tested on: myelin oligodendrocyte glycoprotein (MOG)-induced murine model of experimental autoimmune encephalomyelitis (EAE); assay: Body weight in MOG-induced EAE model; format: in vivo, C57BL/6J mice; details: for BW compared to vehicle group: throughout the study
Description: as §1, §2
(§10) Each group received a dose volume of 5 ml/kg, and the regimen was performed daily from day 0 to 22 of the study, QD. On study day 21, half of the animals in each group was treated and tested for electrophysiology and electromyography (EMG) two hours post dosing. On study day 22, the same was performed with the remaining half of the animals in each group.
as §3, with “Animals in Group 5 were treated with Tizanidine at a dose level of 1 mg/kg, IP.” left out

[4] = tested on: myelin oligodendrocyte glycoprotein (MOG)-induced murine model of experimental autoimmune encephalomyelitis (EAE); assay: Electrophysiology (EMG, transcranial motor-evoked potentials) in EAE model; format: in vivo, C57BL/6J mice; details: for latency until reaching the main event / peak-to-peak (P2P) amplitude / latency: Day 10; for latency until reaching the main event: vehicle 10.05±2.59 ms; for peak-to-peak (P2P) amplitude: vehicle 7681.17±1505.12 μV; for latency: vehicle 6.94±0.59 ms; for rate of fibrillation (EMG): Day 21, vehicle printed 1.11±4.69 Hz
Description: as §1, §2, §10, §3
Electrophysiology: The animals were subjected to electrophysiology testing at Baseline and Days 10 and 21 of the study. The EMG, latency, latency to main event, duration, peak-to-peak (P2P) amplitude, and number of subpeaks were recorded.

[5] = tested on: rat model of spasticity induced by complete spinal cord transection; assay: Muscle spasms evoked by tibial nerve stimulation in chronic SCI rats; format: in vivo; details: for duration of action (muscle spasms): recordings up to 6 hours
Description: as §4, §5, §6, §7, §8
Muscles spasms: In awake chronic SCI rats, muscle spasms were evoked with stimulation of the tibial nerve while performing electromyographic (EMG) recordings from the flexor digitorum brevis (FDB) muscle. Spastic spinal rats were handled nine days before the experiment and progressively habituated to be individually constrained in a plexiglass tube and to immobilization of their paralyzed hindlimbs with tape. • 1. Hmax and Mmax determination: the tibial nerve was stimulated for 0.2 ms at 0.2 Hz with increasing current intensities (1-6 mA in 0.2 mA increments) until Mmax was stabilized. • 2. A supramaximal single-pulse stimulation to elicit muscle spasms was fixed throughout the experiment (2 or 3 times the threshold intensity for M-wave) and evoked 5 times, with 60 s interstimulus intervals. EMG were rectified and averaged over 2000 ms interval post-stimulus to quantify spasms (Clamplit 8.0, Axon Instruments).
as §9
Modulation of Muscle Spasms. When the tibial nerve was stimulated in acutely (1 week after injury) injured rats, little reflexes were evoked in the FDB muscle (FIG. 8A), regardless of the stimulation intensity. In contrast, stimulation of the tibial nerve in chronic (5 weeks after injury) SCI rats produced more (P<0.0001; Mann-Whitney test; FIG. 8C) long-lasting muscle contractions (FIG. 8B). This effect is a reliable correlate of the development of spasticity. In spastic rats, spasms were induced through the FDB muscle after electrical stimulation of the tibial nerve. […]

[6] = tested on: myelin oligodendrocyte glycoprotein (MOG)-induced murine model of experimental autoimmune encephalomyelitis (EAE); assay: EAE clinical score and AUC; format: in vivo, C57BL/6J mice
Description: as §1, §2
as §3, with “Animals in Group 1 received oral (PO) treatment with the vehicle. Animals in Group 2 were treated with Fingolimod (FTY720; positive control) at a dose level of 3 mg/kg. PO. Animals in Groups 3 and 4 were treated with the test item Compound 1 at a dose level of 10 mg/kg or 3 mg/kg, PO, respectively. Animals in Group 5 were treated with Tizanidine at a dose level of 1 mg/kg, IP.” left out

[7] = both dose levels (10 and 3 mg/kg PO QD)

Clc1ccc2nsnc2c1NC1=NCCN1 [Tizanidine, reference compound]
withdrawal force threshold (Von Frey) ([1]; 1 mg/kg IP, 3.5 hours post dosing, vehicle 0.78±0.06 g): 1.32 ± 0.15 g
withdrawal force threshold compared to vehicle ([1]; 1 mg/kg IP, all timepoints (0.5, 1.5, and 3.5 hours) post-dose): higher withdrawal force threshold
maximum effect, time (H-reflex RDD) ([2]; single P.O. 3 mg/kg): 2 h
onset of action (H-reflex RDD) ([2]; single P.O. 3 mg/kg): 2 h
mean relative amplitudes of the H-reflex (RDD), effect on spasticity ([2]; single P.O. 3 mg/kg): significantly reduced
mean BW presented as percentage from Baseline ([3]; 1 mg/kg IP QD, Day 16, vehicle 82.06±2.35%): 91.31±1.59%
latency until reaching the main event ([4]; 1 mg/kg IP QD): 5.64 ± 0.19 ms
peak-to-peak (P2P) amplitude ([4]; 1 mg/kg IP QD): 13488.71±1234.10 μV
maximum effect, time (muscle spasms) ([5]; single P.O. 3 mg/kg): 3 h
muscle spasms (AUC) ([5]; single P.O. 3 mg/kg): reduced
onset of action (muscle spasms) ([5]; single P.O. 3 mg/kg): 2 h
clinical score compared to the vehicle ([6]; 1 mg/kg IP QD): did not result in a significant reduction

CC(C)C[C@](C)(N)COc1ccc(-c2ccnc(C(F)F)c2)nc1C(F)F [Compound 1, (S)-1-((2′,6-bis(difluoromethyl)-[2,4′-bipyridin]-5-yl)oxy)-2,4-dimethylpentan-2-amine]
withdrawal force threshold compared to the vehicle-treated group ([1]; 3 mg/kg PO, all timepoints post dosing): higher withdrawal force threshold compared to the vehicle-treated group
withdrawal force threshold (Von Frey) ([1]; 10 mg/kg PO, 1.5 hours post dosing, vehicle 0.89±0.11 g): 1.48 ± 0.10 g
withdrawal force threshold (Von Frey) ([1]; 10 mg/kg PO, 3.5 hours post dosing, vehicle 0.78±0.06 g): 1.36 ± 0.09 g
withdrawal force threshold (Von Frey) ([1]; 10 mg/kg PO, 5.5 hours post dosing, vehicle 0.82±0.08 g): 1.52 ± 0.13 g
mean relative amplitudes of the H-reflex (RDD), effect on spasticity ([2]; single P.O. 3 mg/kg): did not appear to affect spasticity
onset of action (H-reflex RDD) ([2]; single P.O. 10 mg/kg): 1 h
mean relative amplitudes of the H-reflex (RDD) ([2]; single P.O. 10 mg/kg): significantly reduced
duration of action (H-reflex RDD) ([2]; single P.O. 10 mg/kg): at least 6 hour
onset of action (H-reflex RDD) ([2]; single P.O. 30 mg/kg): 1 h
mean relative amplitudes of the H-reflex (RDD) ([2]; single P.O. 30 mg/kg): significantly reduced
duration of action (H-reflex RDD) ([2]; single P.O. 30 mg/kg): at least 6 hours
BW compared to vehicle group ([3]; 3 mg/kg PO QD): not significantly different from the vehicle group
BW compared to vehicle group ([3]; 10 mg/kg PO QD): not significantly different from the vehicle group
latency ([4]; 3 mg/kg PO QD): 5.31 ± 0.21 ms
latency until reaching the main event ([4]; 3 mg/kg PO QD): 5.32 ± 0.22 ms
peak-to-peak (P2P) amplitude ([4]; 3 mg/kg PO QD): 11321.67±1321.68 μV
rate of fibrillation (EMG) ([4]; 3 mg/kg PO QD): 0.38±0.38 Hz
latency ([4]; 10 mg/kg PO QD): 5.54 ± 0.22 ms
peak-to-peak (P2P) amplitude ([4]; 10 mg/kg PO QD): 11613.75±1154.41 μV
rate of fibrillation (EMG) ([4]; 10 mg/kg PO QD): 1.22±0.57 Hz
duration compared to vehicle treated animals [4, 7]: reduced
number of sub potentials compared to vehicle treated animals [4, 7]: reduced
onset of action (muscle spasms) ([5]; single P.O. 3 mg/kg): 1 h
duration of action (muscle spasms) ([5]; single P.O. 3 mg/kg): 5 h
onset of action (muscle spasms) ([5]; single P.O. 10 mg/kg): 1 h
duration of action (muscle spasms) ([5]; single P.O. 10 mg/kg): 3 h
onset of action (muscle spasms) ([5]; single P.O. 30 mg/kg): 1 h
duration of action (muscle spasms) ([5]; single P.O. 30 mg/kg): 5 h
muscle spasms (AUC) ([5]; single P.O., all tested dosages (3, 10, 30 mg/kg), n=10): significantly reduced
clinical score compared to the vehicle ([6]; 10 mg/kg or 3 mg/kg PO QD): did not result in a significant reduction

NCC(CC(=O)O)c1ccc(Cl)cc1 (stereo not drawn) [Baclofen, reference compound]
maximum effect, time (H-reflex RDD) ([2]; single P.O. 4.5 mg/kg): 5 h
onset of action (H-reflex RDD) ([2]; single P.O. 4.5 mg/kg): 1 h
mean relative amplitudes of the H-reflex (RDD) ([2]; single P.O. 4.5 mg/kg): significantly reduced
maximum effect, time (muscle spasms) ([5]; single P.O. 4.5 mg/kg): 2 h
muscle spasms (AUC) ([5]; single P.O. 4.5 mg/kg): reduced
onset of action (muscle spasms) ([5]; single P.O. 4.5 mg/kg): 1 h
